PubChem BioAssay (NCI)
“And” between values parts separate entries of the source, which are not always exact repeats. Equal values may be shown once.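 Five compound concentrations were applied to cells in 96-well plates for 48 hours; endpoints were derived by simple linear interpolation of the resulting dose-response curve. Abbreviation: GI50, concentration required for 50% inhibition of growth. TGI marks complete inhibition of growth.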

Columns and labels:
Assay in all cases: growth of human tumour cells (NCI), 48 h
[1] = tested on: RPMI-8226 leukemia
[2] = tested on: KM20L2 colon
[3] = tested on: PC-3 prostate
[4] = tested on: TK-10 renal
[5] = tested on: A498 renal
[6] = tested on: MDA-MB-435
[7] = tested on: MALME-3M melanoma
[8] = tested on: HCC-2998 colon
[9] = tested on: HOP-18 NSCLC
[10] = tested on: A549 NSCLC
[11] = tested on: NCI-H460 lung
[12] = tested on: HL-60(TB) leukemia
[13] = tested on: MDA-MB-231 breast
[14] = tested on: RXF-631 renal
[15] = tested on: XF 498 CNS
[16] = tested on: OVCAR-3 ovarian
[17] = tested on: SK-MEL-5 melanoma
[18] = tested on: SK-MEL-2 melanoma
[19] = tested on: HCT-116 colon
[20] = tested on: UACC-62 melanoma
[21] = tested on: LXFL 529 NSCLC
[22] = tested on: COLO 205 colon
[23] = tested on: HT29 colon
[24] = tested on: SK-OV-3 ovarian
[25] = tested on: U251 CNS
[26] = tested on: SN12C renal
[27] = tested on: OVCAR-4 ovarian
[28] = tested on: SW-620 colon
[29] = tested on: HOP-92 NSCLC
[30] = tested on: EKVX NSCLC
[31] = tested on: ACHN renal
[32] = tested on: SF-268 CNS
[33] = tested on: DLD-1 colon
[34] = tested on: SF-539 CNS
[35] = tested on: DMS 114 small cell lung
[36] = tested on: CCRF-CEM leukemia

What does the source list for `COC1C(O)C(C)OC(OC2C(Oc3cccc4c(O)c5c(=O)oc6ccc(C)c7c(=O)oc(c34)c5c67)OC(C)C3O[C@H](c4ccccc4)OC32)C1O` (some centres undefined)?
TGI [1]: 11100 nM; TGI [2]: 2980 nM; GI50 [3]: 243 nM; TGI [3]: 8710 nM; TGI [4]: 7370 nM; TGI [5]: 1110 nM; GI50 [6]: 309 nM and 436 nM; TGI [6]: 7220 nM; TGI [7]: 3720 nM; GI50 [8]: 276 nM; TGI [8]: 3410 nM; TGI [9]: 13600 nM; TGI [10]: 2530 nM; GI50 [11]: 24.1 nM; TGI [11]: 1430 nM; TGI [12]: 4530 nM; GI50 [13]: 455 nM; TGI [13]: 7780 nM; TGI [14]: 2370 nM; TGI [15]: 2210 nM; TGI [16]: 5310 nM; TGI [17]: 1800 nM; GI50 [18]: 937 nM; TGI [18]: 6070 nM; GI50 [19]: 52.8 nM and 29.2 nM; TGI [19]: 3640 nM; GI50 [20]: 304 nM; TGI [20]: 1900 nM; TGI [21]: 3180 nM; GI50 [22]: 258 nM and 204 nM; TGI [22]: 5590 nM; TGI [23]: 10200 nM; TGI [24]: 7940 nM; TGI [25]: 10900 nM; GI50 [26]: 173 nM; TGI [26]: 6170 nM; TGI [27]: 9750 nM; TGI [28]: 14300 nM; GI50 [29]: 82.3 nM; TGI [29]: 7210 nM; TGI [30]: 5990 nM; GI50 [31]: 27.6 nM; TGI [32]: 5830 nM; TGI [33]: 8670 nM; GI50 [34]: 198 nM; TGI [34]: 2230 nM; TGI [35]: 2690 nM; GI50 [36]: 75.2 nM and 73.1 nM; TGI [36]: 8820 nM
